≈ marks a conversion by molar mass, not a printed value. Like-named read-outs stand apart in the source and are kept apart here. Blank lines part the entries; values can stand above or below the molecule they belong to.
Tests used:
[1] = test system: HMC3 (human microglia) cell line; test: pHrodo-myelin phagocytosis/cell viability high content imaging assay: phagocytosis signal; assay type: cell-based
Procedure, shortened: (§1)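 HCI read-out ~22 h post pHrodo-myelin; phagocytosis + viability simultaneously; 3 parameters extracted; intensity up = early apoptosis, down = later apoptosis.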

[2] = test system: protein product expressed by the gene target; settings: cited from earlier work
[3] = Kinetic solubility in aqueous buffer pH 7.4 by total chemiluminescent nitrogen determination (Analiza); settings: aqueous buffer, pH 7.4, aqueous buffer, kinetic from dmso stock
[4] = test system: BV2 (mouse microglia) cell line; test: pHrodo-myelin phagocytosis/cell viability high content imaging assay: viability (cell count, nuclear area, nuclear intensity)
Procedure, shortened: (§2)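 Immortalized microglia are treated with compound (10 μM, single concentration) for 48 h, the final 20 h alongside pHrodo-myelin. Data are the mean of duplicates, reported as % of untreated control.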

[5] = test system: HMC3 (human microglia) cell line; test: as above
Procedure, shortened: as §2

[6] = test system: BV2 (mouse microglia) cell line; test: pHrodo-myelin phagocytosis/cell viability high content imaging assay: phagocytosis signal; assay type: cell-based
Procedure, shortened: as §1

cellular system = settings: published cellular activity at 10 μM; cited from earlier work
physchem = settings: pH 7.4, aqueous buffer, kinetic from dmso stock
[7] = gene target APP, ref PubMed 22323718

Structure (SMILES): COc1nc(OCc2cccc(-c3ccccc3)c2C)ccc1CNCCNC(C)=O.Cl [BMS-202]
Mouse microglial cytotoxicity at 10 μM (<70% control) ([4]; BV2 cells, 10 μM, cell count <70% control): Y (The compound was found to be cytotoxic (cell count threshold: <70% control) when murine immortalized microglial cells were dosed at 10 μM (Y: yes)) | Human microglial cytotoxicity at 10 μM (<70% control) ([5]; HMC3 cells, 10 μM, cell count <70% control): Y (The compound was found to be cytotoxic (cell count threshold: <70% control) when human immortalized microglial cells were dosed at 10 μM (Y: yes)) | Inhibition of mouse microglial phagocytosis at 10 μM (<70% control) ([6]; BV2 cells, 10 μM): Y (The compound was found to inhibit phagocytosis (response threshold: <70% control) when murine immortalized microglial cells were dosed at 10 μM (Y: yes)) | Inhibition of human microglial phagocytosis at 10 μM (<70% control) ([1]; HMC3 cells, 10 μM): Y (The compound was found to inhibit phagocytosis (response threshold: <70% control) when human immortalized microglial cells were dosed at 10 μM (Y: yes)) | Reported as cell active (<10 μM) (cellular system): Y (Published data supports that the compound is active in a cellular system when dosed at 10 μM (Y/N)) | solubility kinetic (physchem): 97.9 µM

Structure (SMILES): Nc1nc(Nc2ccc3c(c2)CC[C@@H](N2CCCC2)CC3)nn1-c1cc2c(nn1)-c1ccccc1CCC2 [Bemcentinib (BGB324)]
Mouse microglial cytotoxicity at 10 μM (<70% control) ([4]; BV2, 10 μM): Y (The compound was found to be cytotoxic (cell count threshold: <70% control) when murine immortalized microglial cells were dosed at 10 μM (Y: yes)) | Human microglial cytotoxicity at 10 μM (<70% control) ([5]; HMC3, 10 μM): Y (The compound was found to be cytotoxic (cell count threshold: <70% control) when human immortalized microglial cells were dosed at 10 μM (Y: yes)) | Inhibition of mouse microglial phagocytosis at 10 μM (<70% control) ([6]; BV2, 10 μM): Y (The compound was found to inhibit phagocytosis (response threshold: <70% control) when murine immortalized microglial cells were dosed at 10 μM (Y: yes)) | Inhibition of human microglial phagocytosis at 10 μM (<70% control) ([1]; HMC3, 10 μM): Y (The compound was found to inhibit phagocytosis (response threshold: <70% control) when human immortalized microglial cells were dosed at 10 μM (Y: yes)) | Reported on-target biochemical potency [2]: 14 nM | solubility kinetic [3]: 82.9 µM (≈ 42 µg/mL)

Structure (SMILES): O=C(N/N=C/c1ccc(Cl)cc1)c1ccccc1 [Compound 1e]
Reported on-target biochemical potency ([2]; gene target CTSH, ref PubMed 25181676): 440 nM | solubility kinetic [3]: 37.8 µM (≈ 9.78 µg/mL)

Structure (SMILES): Cc1ccc(F)c(NC(=O)Nc2ccc(-c3cccc4[nH]nc(N)c34)cc2)c1 [Linifanib]
Mouse microglial cytotoxicity at 10 μM (<70% control) ([4]; BV2, 10 μM): Y (The compound was found to be cytotoxic (cell count threshold: <70% control) when murine immortalized microglial cells were dosed at 10 μM (Y: yes)) | Human microglial cytotoxicity at 10 μM (<70% control) ([5]; HMC3, 10 μM): Y (The compound was found to be cytotoxic (cell count threshold: <70% control) when human immortalized microglial cells were dosed at 10 μM (Y: yes)) | Stimulation of mouse microglial phagocytosis at 10 μM (>150% control) ([6]; BV2, 10 μM): Y (The compound was found to stimulate phagocytosis (response threshold: >150% control) when murine immortalized microglial cells were dosed at 10 μM (Y: yes)) | Inhibition of human microglial phagocytosis at 10 μM (<70% control) ([1]; HMC3, 10 μM): Y (The compound was found to inhibit phagocytosis (response threshold: <70% control) when human immortalized microglial cells were dosed at 10 μM (Y: yes)) | Reported on-target biochemical potency ([2]; gene target CYP19A1, ref Probe Miner): 5 nM | solubility kinetic [3]: 0.6 µM (≈ 0.225 µg/mL)

Structure (SMILES): Cc1ccc(NC(=O)c2ccc(CN3CCN(C)CC3)cc2)cc1Nc1nc(-c2cccnc2)cs1 [Masitinib (AB1010)]
Mouse microglial cytotoxicity at 10 μM (<70% control) ([4]; 10 μM, BV2): Y (The compound was found to be cytotoxic (cell count threshold: <70% control) when murine immortalized microglial cells were dosed at 10 μM (Y: yes)) | Inhibition of mouse microglial phagocytosis at 10 μM (<70% control) ([6]; 10 μM, BV2): Y (The compound was found to inhibit phagocytosis (response threshold: <70% control) when murine immortalized microglial cells were dosed at 10 μM (Y: yes)) | Inhibition of human microglial phagocytosis at 10 μM (<70% control) ([1]; 10 μM, HMC3): Y (The compound was found to inhibit phagocytosis (response threshold: <70% control) when human immortalized microglial cells were dosed at 10 μM (Y: yes)) | Reported on-target biochemical potency ([2]; target KIT, ref PubMed PMC2746281): 200 nM | Reported on-target biochemical potency ([2]; target LYN, ref PubMed PMC2746281): 510 nM | Reported on-target biochemical potency ([2]; target PDGFRα, ref PubMed PMC2746281): 540 nM | Reported on-target biochemical potency ([2]; target PDGFRβ, ref PubMed PMC2746281): 800 nM | solubility kinetic [3]: 93.9 µM (≈ 46.8 µg/mL)

Structure (SMILES): O=c1ncn2nc(Sc3ccc(F)cc3F)ccc2c1-c1c(Cl)cccc1Cl [Neflamapimod (VX-745)]
Stimulation of mouse microglial phagocytosis at 10 μM (>150% control) ([6]; 10 μM, BV2): Y (The compound was found to stimulate phagocytosis (response threshold: >150% control) when murine immortalized microglial cells were dosed at 10 μM (Y: yes)) | Reported on-target biochemical potency ([2]; target MAPK11, ref PubMed 24900264): 220 nM | Reported on-target biochemical potency ([2]; target MAPK14, ref PubMed 24900264): 10 nM | solubility kinetic [3]: 48.1 µM (≈ 21 µg/mL)

Structure (SMILES): O=C(Nc1ccc([N+](=O)[O-])cc1Cl)c1cc(Cl)ccc1O [Niclosamide]
Inhibition of human microglial phagocytosis at 10 μM (<70% control) ([1]; HMC3 cells, 10 μM): Y (The compound was found to inhibit phagocytosis (response threshold: <70% control) when human immortalized microglial cells were dosed at 10 μM (Y: yes)) | Reported as cell active (<10 μM) (cellular system): Y (Published data supports that the compound is active in a cellular system when dosed at 10 μM (Y/N)) | solubility kinetic (physchem): 17.5 µM (≈ 5.72 µg/mL)

Structure (SMILES): Cl.NC(=O)c1cnc(N[C@@H]2CCCC[C@@H]2N)nc1Nc1cccc(-n2nccn2)c1 [P505-15 (PRT06207 HCl)]
Inhibition of mouse microglial phagocytosis at 10 μM (<70% control) ([6]; BV2 cells, 10 μM): Y (The compound was found to inhibit phagocytosis (response threshold: <70% control) when murine immortalized microglial cells were dosed at 10 μM (Y: yes)) | Inhibition of human microglial phagocytosis at 10 μM (<70% control) ([1]; HMC3 cells, 10 μM): Y (The compound was found to inhibit phagocytosis (response threshold: <70% control) when human immortalized microglial cells were dosed at 10 μM (Y: yes)) | Reported as cell active (<10 μM) (cellular system): Y (Published data supports that the compound is active in a cellular system when dosed at 10 μM (Y/N)) | solubility kinetic (physchem): 118 µM

Structure (SMILES): CCN(CC)Cc1ccc(C(=O)N(CCc2ccccc2OC)[C@@H]2CCNC2)cc1.Cl.Cl [PF429242]
Stimulation of mouse microglial phagocytosis at 10 μM (>150% control) ([6]; BV2 cells, 10 μM): Y (The compound was found to stimulate phagocytosis (response threshold: >150% control) when murine immortalized microglial cells were dosed at 10 μM (Y: yes)) | Inhibition of human microglial phagocytosis at 10 μM (<70% control) ([1]; HMC3 cells, 10 μM): Y (The compound was found to inhibit phagocytosis (response threshold: <70% control) when human immortalized microglial cells were dosed at 10 μM (Y: yes)) | Reported as cell active (<10 μM) (cellular system): Y (Published data supports that the compound is active in a cellular system when dosed at 10 μM (Y/N)) | solubility kinetic (physchem): 131 µM

Structure (SMILES): CC(C)[C@H](O)C(=O)N[C@@H](C)C(=O)N[C@@H]1C(=O)N(C)CCc2ccccc21 [Semagacestat (LY450139)]
Stimulation of mouse microglial phagocytosis at 10 μM (>150% control) ([6]; BV2, 10 μM): Y (The compound was found to stimulate phagocytosis (response threshold: >150% control) when murine immortalized microglial cells were dosed at 10 μM (Y: yes)) | Reported on-target biochemical potency (nM): Aβ38 [2, 7]: 12 nM | Reported on-target biochemical potency (nM): Aβ40 [2, 7]: 12.1 nM | Reported on-target biochemical potency (nM): Aβ42 [2, 7]: 10.9 nM | solubility kinetic [3]: 176 µM (≈ 63.8 µg/mL)

Structure (SMILES): CN(C)c1ccc2c(c1)Sc1cc(N(C)C)ccc1N2.CS(=O)(=O)O.CS(=O)(=O)O [TRx0237 (LMTX) mesylate]
Mouse microglial cytotoxicity at 10 μM (<70% control) ([4]; 10 μM, BV2): Y (The compound was found to be cytotoxic (cell count threshold: <70% control) when murine immortalized microglial cells were dosed at 10 μM (Y: yes)) | Human microglial cytotoxicity at 10 μM (<70% control) ([5]; 10 μM, HMC3): Y (The compound was found to be cytotoxic (cell count threshold: <70% control) when human immortalized microglial cells were dosed at 10 μM (Y: yes)) | Inhibition of human microglial phagocytosis at 10 μM (<70% control) ([1]; 10 μM, HMC3): Y (The compound was found to inhibit phagocytosis (response threshold: <70% control) when human immortalized microglial cells were dosed at 10 μM (Y: yes)) | Reported on-target biochemical potency ([2]; target gene MAPT, ref PubMed 26809554): 160 nM | solubility kinetic [3]: 115 µM

Structure (SMILES): CCOC(=O)N1c2ccc(C(F)(F)F)cc2[C@@H](N(Cc2cc(C(F)(F)F)cc(C(F)(F)F)c2)C(=O)OC)C[C@H]1CC [Torcetrapib]
Reported on-target biochemical potency ([2]; gene target CETP, ref Probe Miner, PubMed 17984165, 19164467): 7.72 nM | solubility kinetic [3]: < 1.1 µM

Structure (SMILES): CN1C(=N)N[C@](C)(c2cc(NC(=O)c3ccc(F)cn3)ccc2F)CS1(=O)=O [Verubecestat (MK-8931)]
Reported on-target biochemical potency (nM): BACE1 ([2]; gene target BACE1, ref PubMed 27418961, 27023706): 1.8 nM | Reported on-target biochemical potency (nM): BACE2 ([2]; gene target BACE2, ref PubMed 27418961, 27023706): 0.37 nM | solubility kinetic [3]: 154 µM (≈ 63.3 µg/mL)

Further lines, with some results ahead:

solubility kinetic [3]: 31.1 µM (≈ 9.81 µg/mL)
Structure (SMILES): C[C@H](N/C(=N\c1cccc2ncccc12)NC#N)c1ccccc1 [A-804598]
Inhibition of human microglial phagocytosis at 10 μM (<70% control) ([1]; 10 μM, HMC3): Y (The compound was found to inhibit phagocytosis (response threshold: <70% control) when human immortalized microglial cells were dosed at 10 μM (Y: yes)) | Reported on-target biochemical potency ([2]; target P2X7, ref PubMed 18602931, 28716092, 28871219, 29934546): 10 nM

solubility kinetic [3]: 1.9 µM (≈ 0.805 µg/mL)
Structure (SMILES): N#CC(CCCN1CCN(/N=C/c2cccnc2)CC1)(c1ccccc1)c1ccccc1 [SC-26196]
Reported on-target biochemical potency ([2]; gene target FADS2, ref PubMed 18719641, 23112819, 10419129): 200 nM

Source: paper PMC9019904, “AD Informer Set: Chemical tools to facilitate Alzheimer's disease drug discovery” (Alzheimer's & Dementia : Translational Research & Clinical …, 2022)
